From PubChem BioAssay (NCI)
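Cultured in 96-well plates, cells were exposed to test compound for 48 hours across five concentrations. At the GI50, growth is halved. At the TGI there is no net growth.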

How the values were obtained:
Assay in all cases: NCI anticancer screen, dose series, 48 h
HT29 colon = system: HT29 colon
HCT-116 colon = system: HCT-116 colon
RXF 393 renal = system: RXF 393 renal
EKVX NSCLC = system: EKVX NSCLC
MOLT-4 leukemia = system: MOLT-4 leukemia
OVCAR-5 ovarian = system: OVCAR-5 ovarian
TK-10 renal = system: TK-10 renal
KM12 colon = system: KM12 colon
T-47D breast = system: T-47D breast
SK-MEL-28 melanoma = system: SK-MEL-28 melanoma
SNB-19 CNS = system: SNB-19 CNS
SNB-75 CNS = system: SNB-75 CNS
UACC-257 melanoma = system: UACC-257 melanoma
SK-MEL-5 melanoma = system: SK-MEL-5 melanoma
PC-3 prostate = system: PC-3 prostate
CCRF-CEM leukemia = system: CCRF-CEM leukemia
NCI-H460 lung = system: NCI-H460 lung
SK-MEL-2 melanoma = system: SK-MEL-2 melanoma
U251 CNS = system: U251 CNS
CAKI-1 renal = system: CAKI-1 renal
OVCAR-8 ovarian = system: OVCAR-8 ovarian
SW-620 colon = system: SW-620 colon
ACHN renal = system: ACHN renal
OVCAR-4 ovarian = system: OVCAR-4 ovarian
COLO 205 colon = system: COLO 205 colon
HCT-15 colon = system: HCT-15 colon
HS 578T breast = system: HS 578T breast
DU-145 prostate = system: DU-145 prostate

Question: How did the GI50 (HT29 colon) turn out when `CCOC(=O)n1cc(C2=C(c3cn(C)c4ccccc34)COC2=O)c2ccccc21` was run?
Answer: 0.0464 µM

Question: And the GI50 (HCT-116 colon)?
Answer: 0.0515 µM

Question: What about the TGI (HCT-116 colon) of the same compound?
Answer: 16.8 µM

Question: And the GI50 (RXF 393 renal)?
Answer: 0.0356 µM

Question: And the TGI (RXF 393 renal)?
Answer: 0.377 µM

Question: What about the GI50 (EKVX NSCLC) of the same compound?
Answer: 0.177 µM

Question: What about the TGI (EKVX NSCLC) of the same compound?
Answer: > 100 µM

Question: And the GI50 (MOLT-4 leukemia)?
Answer: 0.38 µM

Question: And the TGI (MOLT-4 leukemia)?
Answer: > 48.4 µM

Question: And the GI50 (OVCAR-5 ovarian)?
Answer: 0.462 µM

Question: And the TGI (OVCAR-5 ovarian)?
Answer: > 100 µM

Question: What about the GI50 (TK-10 renal) of the same compound?
Answer: 10 µM

Question: What about the TGI (TK-10 renal) of the same compound?
Answer: 31 µM

Question: What about the GI50 (KM12 colon) of the same compound?
Answer: 0.0471 µM

Question: And the TGI (KM12 colon)?
Answer: > 100 µM

Question: What about the GI50 (T-47D breast) of the same compound?
Answer: 0.338 µM

Question: What about the TGI (T-47D breast) of the same compound?
Answer: > 100 µM

Question: And the GI50 (SK-MEL-28 melanoma)?
Answer: 1.03 µM

Question: What about the TGI (SK-MEL-28 melanoma) of the same compound?
Answer: > 100 µM

Question: And the GI50 (SNB-19 CNS)?
Answer: 0.259 µM

Question: What about the TGI (SNB-19 CNS) of the same compound?
Answer: > 63.2 µM

Question: And the GI50 (SNB-75 CNS)?
Answer: 0.0248 µM

Question: And the TGI (SNB-75 CNS)?
Answer: 1.22 µM

Question: And the GI50 (UACC-257 melanoma)?
Answer: 3.52 µM

Question: What about the TGI (UACC-257 melanoma) of the same compound?
Answer: > 100 µM

Question: What about the GI50 (SK-MEL-5 melanoma) of the same compound?
Answer: 0.0359 µM

Question: What about the TGI (SK-MEL-5 melanoma) of the same compound?
Answer: 0.393 µM

Question: What about the GI50 (PC-3 prostate) of the same compound?
Answer: 0.162 µM

Question: And the TGI (PC-3 prostate)?
Answer: > 100 µM

Question: What about the GI50 (CCRF-CEM leukemia) of the same compound?
Answer: 0.218 µM

Question: What about the TGI (CCRF-CEM leukemia) of the same compound?
Answer: > 100 µM

Question: What about the GI50 (NCI-H460 lung) of the same compound?
Answer: 0.371 µM

Question: What about the TGI (NCI-H460 lung) of the same compound?
Answer: > 100 µM

Question: What about the GI50 (SK-MEL-2 melanoma) of the same compound?
Answer: 0.5 µM

Question: And the TGI (SK-MEL-2 melanoma)?
Answer: > 86.1 µM

Question: What about the GI50 (U251 CNS) of the same compound?
Answer: 0.274 µM

Question: What about the TGI (U251 CNS) of the same compound?
Answer: 22.1 µM

Question: And the GI50 (CAKI-1 renal)?
Answer: 0.0492 µM

Question: What about the TGI (CAKI-1 renal) of the same compound?
Answer: 18.5 µM

Question: What about the GI50 (OVCAR-8 ovarian) of the same compound?
Answer: 0.312 µM

Question: And the TGI (OVCAR-8 ovarian)?
Answer: > 100 µM

Question: What about the GI50 (SW-620 colon) of the same compound?
Answer: 0.0724 µM

Question: What about the TGI (SW-620 colon) of the same compound?
Answer: > 100 µM

Question: What about the GI50 (ACHN renal) of the same compound?
Answer: 0.0795 µM

Question: And the TGI (ACHN renal)?
Answer: > 100 µM

Question: What about the GI50 (OVCAR-4 ovarian) of the same compound?
Answer: 0.0692 µM

Question: What about the TGI (OVCAR-4 ovarian) of the same compound?
Answer: > 100 µM

Question: What about the GI50 (COLO 205 colon) of the same compound?
Answer: 0.241 µM

Question: And the TGI (COLO 205 colon)?
Answer: 2.41 µM

Question: And the GI50 (HCT-15 colon)?
Answer: 0.0382 µM

Question: What about the TGI (HCT-15 colon) of the same compound?
Answer: > 63 µM

Question: What about the GI50 (HS 578T breast) of the same compound?
Answer: 0.116 µM

Question: And the TGI (HS 578T breast)?
Answer: 21.1 µM

Question: And the GI50 (DU-145 prostate)?
Answer: 0.391 µM
